Measured values as given in ChEMBL document CHEMBL4364278, “2,7-naphthyridinone-based MET kinase inhibitors: A promising novel scaffold for antitumor drug development” (Eur J Med Chem, 2019).
Values belong to the compound of their own block, whether it stands above or below them.

What was measured:
[1] = test system: HT-29; experiment: Antitumour activity against human HT-29 cells xenografted in athymic nude mouse assessed as tumor growth inhibition at 25 mg/kg, po administrated for 3 weeks by caliper method relative to control; assay type: functional; conditions: HT-29, po, 504 h, read-out: TGI
[2] = target: T1, Hepatocyte growth factor receptor (Homo sapiens, UniProt P08581)
Description: Inhibition of human recombinant His-tagged cMET cytoplasmic domain expressed in baculovirus expression system using biotin as substrate preincubated for 5 mins followed by substrate addition and measured after 30 to 60 mins by HTRF assay

[3] = target: T1, Hepatocyte growth factor receptor; remark: listed apart in the source
Description: Inhibition of HGF-induced cMET autophosphorylation in human MKN45 cells preincubated for 1 hr followed by HGF addition and measured after 10 mins by ELISA

[4] = target: Vascular endothelial growth factor receptor 2 (Homo sapiens, UniProt P35968)
Description: Inhibition of recombinant human His-tagged VEGFR2 cytoplasmic domain expressed in baculovirus expression system using biotin as substrate preincubated for 5 mins followed by substrate addition and measured after 30 to 60 mins by HTRF assay

[5] = test system: U-87 MG; experiment: animal or person; conditions: Mus musculus, po, 504 h, read-out: TGI
Description: Antitumour activity against human U87MG cells xenografted in athymic nude mouse assessed as tumor growth inhibition at 25 mg/kg, po administrated for 3 weeks by caliper method relative to control

[6] = target: Aurora kinase B (Homo sapiens) (UniProt Q96GD4); experiment: Inhibition of AuroraB (unknown origin) at 1 uM relative to control
[7] = target: Tyrosine-protein kinase receptor UFO (Homo sapiens) (UniProt P30530); experiment: Inhibition of AXL (unknown origin) at 1 uM relative to control
[8] = target: Discoidin domain-containing receptor 2 (Homo sapiens) (UniProt Q16832); experiment: Inhibition of DDR2 (unknown origin) at 1 uM relative to control
[9] = target: Dual specificity tyrosine-phosphorylation-regulated kinase 2 (Homo sapiens) (UniProt Q92630); experiment: Inhibition of DYRK2 (unknown origin) at 1 uM relative to control
[10] = target: Ephrin type-A receptor 3 (Homo sapiens) (UniProt P29320); experiment: Inhibition of EphA3 (unknown origin) at 1 uM relative to control
[11] = target: Ephrin type-B receptor 4 (Homo sapiens) (UniProt P54760); experiment: Inhibition of EphB4 (unknown origin) at 1 uM relative to control
[12] = target: Tyrosine-protein kinase Fes/Fps (Homo sapiens) (UniProt P07332); experiment: Inhibition of FES (unknown origin) at 1 uM relative to control
[13] = target: Tyrosine-protein kinase Fgr (Homo sapiens) (UniProt P09769); experiment: Inhibition of FGR (unknown origin) at 1 uM relative to control
[14] = target: Vascular endothelial growth factor receptor 1 (Homo sapiens) (UniProt P17948); experiment: Inhibition of FLT1 (unknown origin) at 1 uM relative to control
[15] = target: Vascular endothelial growth factor receptor 3 (Homo sapiens) (UniProt P35916); experiment: Inhibition of FLT4 (unknown origin) at 1 uM relative to control
[16] = target: Macrophage colony-stimulating factor 1 receptor (Homo sapiens) (UniProt P07333); experiment: Inhibition of FMS (unknown origin) at 1 uM relative to control
[17] = target: Tyrosine-protein kinase Lck (Homo sapiens) (UniProt P06239); experiment: Inhibition of LCK (unknown origin) at 1 uM relative to control
[18] = target: Tyrosine-protein kinase Lyn (Homo sapiens) (UniProt P07948); experiment: Inhibition of LYN (unknown origin) at 1 uM relative to control
[19] = target: Tyrosine-protein kinase Mer (Homo sapiens) (UniProt Q12866); experiment: Inhibition of MER (unknown origin) at 1 uM relative to control
[20] = target: cAMP-dependent protein kinase catalytic subunit alpha (Homo sapiens) (UniProt P17612); experiment: Inhibition of PKA (unknown origin) at 1 uM relative to control
[21] = target: Proto-oncogene tyrosine-protein kinase receptor Ret (Homo sapiens) (UniProt P07949); experiment: Inhibition of RET (unknown origin) at 1 uM relative to control
[22] = target: Macrophage-stimulating protein receptor (Homo sapiens) (UniProt Q04912); experiment: Inhibition of RON (unknown origin) at 1 uM relative to control
[23] = target: Proto-oncogene tyrosine-protein kinase ROS (Homo sapiens) (UniProt P08922); experiment: Inhibition of ROS (unknown origin) at 1 uM relative to control
[24] = target: Tyrosine-protein kinase receptor TYRO3 (Homo sapiens) (UniProt Q06418); experiment: Inhibition of RSE (unknown origin) at 1 uM relative to control
[25] = target: Proto-oncogene tyrosine-protein kinase Src (Homo sapiens) (UniProt P12931); experiment: Inhibition of SRC (1 to 530 residues)(unknown origin) at 1 uM relative to control
[26] = target: High affinity nerve growth factor receptor (Homo sapiens) (UniProt P04629); experiment: Inhibition of TRKA (unknown origin) at 1 uM relative to control
[27] = target: BDNF/NT-3 growth factors receptor (Homo sapiens) (UniProt Q16620); experiment: Inhibition of TRKB (unknown origin) at 1 uM relative to control
[28] = Cmax in rat at 10 mg/kg, po; assay type: ADME, organism-based; set-up: dose 10 mg/kg, route oral; conditions: in vivo
[29] = Tmax in rat at 10 mg/kg, po; assay type: ADME, organism-based; conditions: in vivo
[30] = Half life in rat at 10 mg/kg, po; assay type: ADME, organism-based; conditions: in vivo
[31] = AUC (0 to infinity) in rat at 10 mg/kg, po; assay type: ADME, organism-based; set-up: dose 10 mg/kg, route oral, time infinity; conditions: in vivo
[32] = Oral bioavailability in rat at 10 mg/kg; assay type: ADME, organism-based; conditions: in vivo
[33] = Half life in rat at 2.5 mg/kg, iv; assay type: ADME, organism-based; conditions: in vivo
[34] = AUC (0 to infinity) in rat at 2.5 mg/kg, iv; assay type: ADME, organism-based; set-up: dose 2.5 mg/kg, route intravenous, time infinity; conditions: in vivo
[35] = Clearance in rat at 2.5 mg/kg, iv; assay type: ADME, organism-based; conditions: in vivo
[36] = Volume of distribution in rat at 2.5 mg/kg, iv; assay type: ADME, organism-based; conditions: in vivo
[37] = Fraction unbound in rat plasma at 2 uM; assay type: ADME, cell-free
[38] = Fraction unbound in mouse plasma at 2 uM; assay type: ADME, cell-free
[39] = Fraction unbound in human plasma at 2 uM; assay type: ADME, cell-free
[40] = test system: U-87 MG; experiment: Antitumour activity against human U87MG cells xenografted in orally dosed athymic nude mouse assessed as inhibition in tumor growth administrated for 3 weeks by caliper method; assay type: functional; conditions: for inhibition: U-87MG ATCC; for minimal effective dose: po, 504 h, read-out: MED
[41] = test system: U-87 MG; experiment: Antitumour activity against human U87MG cells xenografted in athymic nude mouse assessed as tumor growth inhibition at 12.5 mg/kg, po administrated for 3 weeks by caliper method relative to control; assay type: functional, U-87MG ATCC; conditions: 504 h, read-out: TGI
[42] = test system: U-87 MG; experiment: Antitumour activity against human U87MG cells xenografted in athymic nude mouse assessed as tumor growth inhibition at 50 mg/kg, po administrated for 3 weeks by caliper method relative to control; assay type: functional, U-87MG ATCC; conditions: 504 h, read-out: TGI
[43] = test system: HT-29; experiment: Antitumour activity against human HT-29 cells xenografted in athymic nude mouse assessed as tumor growth inhibition at 50 mg/kg, po administrated for 3 weeks by caliper method relative to control; assay type: functional; conditions: HT-29, po, 504 h, read-out: TGI
[44] = test system: U-87 MG; experiment: Antitumour activity against human U87MG cells xenografted in athymic nude mouse assessed as tumor growth inhibition at 40 mg/kg, po administrated for 3 weeks by caliper method relative to control; conditions: 504 h, read-out: TGI

T1 sequence (P08581 whole entry): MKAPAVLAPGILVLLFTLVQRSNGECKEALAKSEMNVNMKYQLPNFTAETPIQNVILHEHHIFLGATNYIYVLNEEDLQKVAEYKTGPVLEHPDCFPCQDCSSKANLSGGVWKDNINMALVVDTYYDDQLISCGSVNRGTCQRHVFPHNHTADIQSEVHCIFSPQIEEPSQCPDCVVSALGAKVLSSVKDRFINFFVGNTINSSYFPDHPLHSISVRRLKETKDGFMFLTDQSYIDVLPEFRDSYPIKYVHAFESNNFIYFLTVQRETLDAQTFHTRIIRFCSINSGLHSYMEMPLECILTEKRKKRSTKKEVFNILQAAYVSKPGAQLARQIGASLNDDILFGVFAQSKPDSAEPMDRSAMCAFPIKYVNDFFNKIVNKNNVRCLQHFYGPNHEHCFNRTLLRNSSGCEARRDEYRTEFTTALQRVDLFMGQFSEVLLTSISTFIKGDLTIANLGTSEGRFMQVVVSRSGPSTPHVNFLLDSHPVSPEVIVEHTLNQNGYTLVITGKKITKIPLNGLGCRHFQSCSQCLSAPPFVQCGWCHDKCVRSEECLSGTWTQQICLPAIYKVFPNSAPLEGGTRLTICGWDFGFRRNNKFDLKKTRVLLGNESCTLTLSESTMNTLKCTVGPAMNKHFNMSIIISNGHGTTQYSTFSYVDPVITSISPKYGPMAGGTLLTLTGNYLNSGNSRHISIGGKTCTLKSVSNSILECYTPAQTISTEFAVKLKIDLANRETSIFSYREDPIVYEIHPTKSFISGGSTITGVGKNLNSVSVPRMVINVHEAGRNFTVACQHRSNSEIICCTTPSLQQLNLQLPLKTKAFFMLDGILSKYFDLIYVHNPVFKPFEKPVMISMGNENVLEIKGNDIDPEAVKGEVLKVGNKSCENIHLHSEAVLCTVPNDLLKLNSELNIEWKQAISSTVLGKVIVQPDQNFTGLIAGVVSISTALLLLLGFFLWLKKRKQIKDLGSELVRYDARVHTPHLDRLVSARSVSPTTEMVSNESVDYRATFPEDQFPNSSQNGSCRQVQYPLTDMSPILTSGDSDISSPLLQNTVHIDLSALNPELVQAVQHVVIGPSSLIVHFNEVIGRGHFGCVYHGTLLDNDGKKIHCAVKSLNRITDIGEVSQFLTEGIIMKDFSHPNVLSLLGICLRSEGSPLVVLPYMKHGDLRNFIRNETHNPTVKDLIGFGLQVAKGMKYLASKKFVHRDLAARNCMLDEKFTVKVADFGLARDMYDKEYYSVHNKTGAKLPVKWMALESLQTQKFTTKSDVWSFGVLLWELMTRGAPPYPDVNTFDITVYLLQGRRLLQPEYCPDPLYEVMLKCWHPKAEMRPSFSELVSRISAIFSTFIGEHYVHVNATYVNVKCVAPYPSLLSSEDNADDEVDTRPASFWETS
Proto-oncogene tyrosine-protein kinase ROS (Homo sapiens), sequence (P08922 whole entry): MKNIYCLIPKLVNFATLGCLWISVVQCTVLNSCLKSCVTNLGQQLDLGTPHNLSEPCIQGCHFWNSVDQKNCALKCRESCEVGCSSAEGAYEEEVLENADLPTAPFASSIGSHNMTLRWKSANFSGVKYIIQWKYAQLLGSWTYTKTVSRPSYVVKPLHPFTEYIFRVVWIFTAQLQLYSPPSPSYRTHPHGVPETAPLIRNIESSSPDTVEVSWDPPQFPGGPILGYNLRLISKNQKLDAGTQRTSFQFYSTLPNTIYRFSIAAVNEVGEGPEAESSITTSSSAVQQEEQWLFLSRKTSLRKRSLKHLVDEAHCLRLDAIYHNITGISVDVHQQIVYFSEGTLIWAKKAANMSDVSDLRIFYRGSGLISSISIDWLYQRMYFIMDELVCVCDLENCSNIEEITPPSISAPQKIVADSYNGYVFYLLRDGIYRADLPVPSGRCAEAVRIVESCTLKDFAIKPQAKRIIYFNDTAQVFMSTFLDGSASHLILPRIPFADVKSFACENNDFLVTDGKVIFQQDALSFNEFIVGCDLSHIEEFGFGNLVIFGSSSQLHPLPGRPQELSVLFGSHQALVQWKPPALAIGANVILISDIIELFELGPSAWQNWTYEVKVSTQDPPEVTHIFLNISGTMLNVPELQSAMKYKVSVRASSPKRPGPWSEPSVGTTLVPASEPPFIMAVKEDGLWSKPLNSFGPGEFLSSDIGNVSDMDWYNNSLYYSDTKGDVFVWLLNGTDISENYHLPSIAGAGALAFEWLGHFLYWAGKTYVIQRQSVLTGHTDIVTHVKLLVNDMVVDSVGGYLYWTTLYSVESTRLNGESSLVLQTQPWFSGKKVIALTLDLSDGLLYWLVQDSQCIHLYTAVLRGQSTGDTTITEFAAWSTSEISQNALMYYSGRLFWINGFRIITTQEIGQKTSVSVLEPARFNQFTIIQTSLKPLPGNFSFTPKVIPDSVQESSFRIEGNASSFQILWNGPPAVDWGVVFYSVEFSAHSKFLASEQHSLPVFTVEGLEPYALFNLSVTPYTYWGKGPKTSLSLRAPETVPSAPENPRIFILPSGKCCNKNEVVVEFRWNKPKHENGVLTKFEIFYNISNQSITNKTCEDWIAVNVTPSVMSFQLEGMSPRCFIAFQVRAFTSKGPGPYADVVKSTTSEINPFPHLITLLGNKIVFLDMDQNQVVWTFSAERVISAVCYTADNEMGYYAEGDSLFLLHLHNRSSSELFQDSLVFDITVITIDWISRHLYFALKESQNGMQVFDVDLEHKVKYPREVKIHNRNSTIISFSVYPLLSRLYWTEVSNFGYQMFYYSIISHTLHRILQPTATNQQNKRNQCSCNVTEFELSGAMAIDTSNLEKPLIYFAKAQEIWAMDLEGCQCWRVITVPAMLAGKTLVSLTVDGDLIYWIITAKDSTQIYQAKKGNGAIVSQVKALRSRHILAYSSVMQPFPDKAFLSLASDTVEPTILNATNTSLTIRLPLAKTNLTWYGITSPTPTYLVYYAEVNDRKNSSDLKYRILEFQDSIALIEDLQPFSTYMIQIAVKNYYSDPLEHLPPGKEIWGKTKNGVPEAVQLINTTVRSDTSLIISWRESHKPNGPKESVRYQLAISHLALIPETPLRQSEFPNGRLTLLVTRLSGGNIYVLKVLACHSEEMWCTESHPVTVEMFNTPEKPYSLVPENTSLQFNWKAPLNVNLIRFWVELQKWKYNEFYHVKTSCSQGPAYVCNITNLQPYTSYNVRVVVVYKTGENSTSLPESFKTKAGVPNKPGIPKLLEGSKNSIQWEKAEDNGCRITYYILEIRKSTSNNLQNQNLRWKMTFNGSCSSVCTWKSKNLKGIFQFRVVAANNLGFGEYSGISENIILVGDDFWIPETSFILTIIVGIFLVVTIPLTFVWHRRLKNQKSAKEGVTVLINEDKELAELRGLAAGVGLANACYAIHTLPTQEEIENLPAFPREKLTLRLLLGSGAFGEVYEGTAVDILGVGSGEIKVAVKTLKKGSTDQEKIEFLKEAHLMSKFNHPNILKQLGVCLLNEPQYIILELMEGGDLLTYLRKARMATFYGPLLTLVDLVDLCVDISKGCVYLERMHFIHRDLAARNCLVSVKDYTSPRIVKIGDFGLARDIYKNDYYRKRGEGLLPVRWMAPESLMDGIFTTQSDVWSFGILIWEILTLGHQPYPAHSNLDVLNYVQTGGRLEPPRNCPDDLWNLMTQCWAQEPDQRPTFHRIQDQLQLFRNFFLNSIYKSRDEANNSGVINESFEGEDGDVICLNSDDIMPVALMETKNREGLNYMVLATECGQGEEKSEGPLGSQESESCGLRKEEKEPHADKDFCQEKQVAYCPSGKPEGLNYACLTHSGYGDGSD
Discoidin domain-containing receptor 2 (Homo sapiens), sequence (Q16832 whole entry, the tested form may be a part): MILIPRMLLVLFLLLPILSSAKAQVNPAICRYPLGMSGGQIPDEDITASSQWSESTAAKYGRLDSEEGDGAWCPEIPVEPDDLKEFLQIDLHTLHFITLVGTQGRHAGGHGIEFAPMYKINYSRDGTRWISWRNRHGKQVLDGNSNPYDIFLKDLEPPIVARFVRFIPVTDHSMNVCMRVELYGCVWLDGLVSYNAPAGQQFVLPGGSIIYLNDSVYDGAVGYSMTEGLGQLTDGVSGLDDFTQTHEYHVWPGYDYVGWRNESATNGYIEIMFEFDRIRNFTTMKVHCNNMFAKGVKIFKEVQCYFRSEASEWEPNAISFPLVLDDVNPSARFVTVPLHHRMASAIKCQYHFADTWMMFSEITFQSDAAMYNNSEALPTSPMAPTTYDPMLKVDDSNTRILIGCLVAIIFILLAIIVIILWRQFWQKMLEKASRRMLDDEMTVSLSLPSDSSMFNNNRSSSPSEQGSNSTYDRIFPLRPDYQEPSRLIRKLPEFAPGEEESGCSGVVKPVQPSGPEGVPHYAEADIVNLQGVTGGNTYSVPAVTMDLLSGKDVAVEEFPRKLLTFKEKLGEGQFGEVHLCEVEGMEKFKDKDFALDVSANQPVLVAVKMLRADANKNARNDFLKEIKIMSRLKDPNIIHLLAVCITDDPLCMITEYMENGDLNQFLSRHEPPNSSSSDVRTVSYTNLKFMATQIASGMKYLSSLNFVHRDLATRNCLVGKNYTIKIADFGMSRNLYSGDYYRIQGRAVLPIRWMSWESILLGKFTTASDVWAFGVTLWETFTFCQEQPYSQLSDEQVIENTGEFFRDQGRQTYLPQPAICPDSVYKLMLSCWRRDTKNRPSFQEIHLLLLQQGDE
Tyrosine-protein kinase Lyn (Homo sapiens), sequence (P07948 2-512 limits assumed): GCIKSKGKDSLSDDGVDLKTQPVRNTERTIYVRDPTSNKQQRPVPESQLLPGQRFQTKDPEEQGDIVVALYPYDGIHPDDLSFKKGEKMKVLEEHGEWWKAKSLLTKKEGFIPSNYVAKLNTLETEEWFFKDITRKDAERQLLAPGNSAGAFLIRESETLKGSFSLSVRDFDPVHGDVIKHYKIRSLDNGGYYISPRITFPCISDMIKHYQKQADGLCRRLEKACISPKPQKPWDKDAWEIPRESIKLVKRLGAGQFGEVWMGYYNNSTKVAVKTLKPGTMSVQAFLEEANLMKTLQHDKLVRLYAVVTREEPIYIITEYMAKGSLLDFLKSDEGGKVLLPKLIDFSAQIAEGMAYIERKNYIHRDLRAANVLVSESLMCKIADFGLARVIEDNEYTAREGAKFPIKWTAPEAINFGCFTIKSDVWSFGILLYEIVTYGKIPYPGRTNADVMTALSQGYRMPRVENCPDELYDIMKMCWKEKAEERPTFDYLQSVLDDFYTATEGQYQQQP

Cmax [28]: 3700 ng/mL | Tmax [29]: 2.3 h | half-life [30]: 11 h | AUC(0-inf) [31]: 21200 ng·h/mL | bioavailability [32]: 51% | half-life [33]: 7 h | AUC [34]: 10500 ng·h/mL | CL [35]: 103 mL/min/kg | Vd [36]: 2.4 L/kg
Compound: Cc1cc2ccnc(Nc3ccc(Oc4ccnc(N)c4Cl)c(F)c3)c2c(=O)n1-c1ccc(F)cc1
inhibition [40]: Dose-dependent effect | minimal effective dose [40]: 32.5 mg/kg | inhibition in vivo at 40 mg/kg [44]: 72% | inhibition in vivo at 25 mg/kg [5]: 44%

Cmax [28]: 2700 ng/mL | Tmax [29]: 1.5 h | half-life [30]: 4.9 h | AUC(0-inf) [31]: 25700 ng·h/mL | bioavailability [32]: 49% | half-life [33]: 4.2 h | AUC(0-inf) [34]: 13100 ng·h/mL | clearance [35]: 6.67 mL/min/kg | Vd [36]: 2.9 L/kg
Compound: Cc1cc2ccnc(Nc3ccc(Oc4ccnc(N)c4I)c(F)c3)c2c(=O)n1-c1ccc(F)cc1

Further lines, the compound ahead of its results:

Compound: CCOc1ccn(-c2ccc(F)cc2)c(=O)c1C(=O)Nc1ccc(Oc2ccnc(N)c2Cl)c(F)c1 [BMS-777607]
inhibition in vivo at 25 mg/kg [1]: 15% | IC50 [2]: 7.6 nM | IC50 [3]: 46.6 nM | IC50 [4]: 139 nM | inhibition in vivo at 25 mg/kg [5]: 98%

Compound: Nc1nccc(Oc2ccc(Nc3nccc4ccn(-c5ccc(F)cc5)c(=O)c34)cc2F)c1Cl
inhibition [6]: 44% | inhibition [7]: 97% | inhibition [8]: 98% | inhibition [9]: -9% | inhibition [10]: 38% | inhibition [11]: 10% | inhibition [12]: 10% | inhibition [13]: 62% | inhibition [14]: 95% | inhibition [15]: 100% | inhibition [16]: 88% | inhibition [17]: 75% | inhibition [18]: 43% | inhibition [19]: 100% | inhibition [20]: 43% | inhibition [21]: 96% | inhibition [22]: 100% | inhibition [23]: 87% | inhibition [24]: 83% | inhibition [25]: 35% | inhibition [26]: 99% | inhibition [27]: 100% | Cmax [28]: 1600 ng/mL | Tmax [29]: 1.2 h | half-life [30]: 5.1 h | AUC(0-inf) [31]: 6700 ng·h/mL | bioavailability [32]: 54% | half-life [33]: 3.2 h | AUC(0-inf) [34]: 3100 ng·h/mL | clearance [35]: 13.3 mL/min/kg | Vd [36]: 3.6 L/kg | Fu [37]: < 0.5% | Fu [38]: < 0.5% | Fu [39]: < 0.5% | inhibition [40]: Dose-dependent effect | minimal effective dose [40]: 12.5 mg/kg | inhibition in vivo at 12.5 mg/kg [41]: 53% | inhibition in vivo at 50 mg/kg [42]: 114% | inhibition in vivo at 25 mg/kg [1]: 50% | inhibition in vivo at 50 mg/kg [43]: 95% | IC50 [3]: 69 nM | inhibition in vivo at 25 mg/kg [5]: 100%

Compound: Cc1cc2ccnc(Nc3ccc(Oc4ccnc(N)c4Cl)c(F)c3)c2c(=O)n1-c1ccc(OC(F)(F)F)cc1
IC50 [2]: > 1000 nM
